# Biological target: T1, Dopamine beta hydroxylase (Homo sapiens, UniProt P09172)
# T1 construct: 125 μl of plasma; tissue Instituto Português do Sangue Transplantação; host or cells: human plasma from healthy donors
# T1 sequence (P09172 40-617 limits assumed): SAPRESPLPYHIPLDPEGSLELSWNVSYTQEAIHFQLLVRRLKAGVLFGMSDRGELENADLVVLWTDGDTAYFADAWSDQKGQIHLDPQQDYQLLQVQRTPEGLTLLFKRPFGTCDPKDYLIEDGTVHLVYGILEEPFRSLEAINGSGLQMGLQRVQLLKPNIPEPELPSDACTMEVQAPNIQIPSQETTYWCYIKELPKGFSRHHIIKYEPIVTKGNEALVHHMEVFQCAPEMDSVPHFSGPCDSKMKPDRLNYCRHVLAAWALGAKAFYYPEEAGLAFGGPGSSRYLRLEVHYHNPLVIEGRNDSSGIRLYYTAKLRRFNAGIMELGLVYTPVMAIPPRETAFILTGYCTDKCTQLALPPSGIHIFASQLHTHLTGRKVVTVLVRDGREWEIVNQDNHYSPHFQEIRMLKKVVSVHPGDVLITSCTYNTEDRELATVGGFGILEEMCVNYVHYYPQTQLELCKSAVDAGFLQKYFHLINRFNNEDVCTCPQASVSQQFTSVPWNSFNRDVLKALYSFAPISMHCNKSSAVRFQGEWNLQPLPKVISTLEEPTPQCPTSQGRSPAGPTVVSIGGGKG
# Assay: Dopamine beta hydroxylase activity in human plasma
# Format: biochemical
# Details: for Plasma (0.01 μM), activity in % of control: inhibitor 0.01 μM; for Plasma (0.1 μM), activity in % of control: inhibitor 0.1 μM
# In short: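 Octopamine production from tyramine over 45 min at 37° C, measured photometrically at 330 nm after SCX extraction and periodate oxidation against an octopamine standard curve, indicates plasma DβH activity. Compounds tested at final 10, 100 and 1000 nM in human plasma, pH 5.0 cofactor buffer, 10 min preincubation; results as % of control.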
Structure (SMILES),"Plasma (0.01 μM), activity in % of control","Plasma (0.1 μM), activity in % of control"
"Cn1c(CCC(=O)N2CCCC2)c2n(c1=S)C[C@@H](c1c(F)cccc1F)C2 [Example 264, (R)-3-(6-(2,6-difluorophenyl)-2-methyl-3-thioxo-2,5,6,7-tetrahydro-3H-pyrrolo[1,2-c]imidazol-1-yl)-1-(pyrrolidin-1-yl)propan-1-one]",98.4 % of control,54.2 % of control
"Cn1c(CCC(=O)N[C@@H]2CCOC2)c2n(c1=S)C[C@@H](c1c(F)ccc(F)c1F)C2 [Example 265, 3-((R)-2-methyl-3-thioxo-6-(2,3,6-trifluorophenyl)-2,5,6,7-tetrahydro-3H-pyrrolo[1,2-c]imidazol-1-yl)-N—((R)-tetrahydrofuran-3-yl)propanamide]",94.9 % of control,70.6 % of control
"Cn1c(CCC(=O)N2CCOCC2)c2n(c1=S)C[C@@H](c1c(F)ccc(F)c1F)C2 [Example 266, (R)-3-(2-methyl-3-thioxo-6-(2,3,6-trifluorophenyl)-2,5,6,7-tetrahydro-3H-pyrrolo[1,2-c]imidazol-1-yl)-1-morpholinopropan-1-one]",85.3 % of control,56.0 % of control
"Cn1c(CCC(=O)N2CCC[C@H]2CO)c2n(c1=S)C[C@@H](c1c(F)ccc(F)c1F)C2 [Example 267, 1-((S)-2-(hydroxymethyl)pyrrolidin-1-yl)-3-((R)-2-methyl-3-thioxo-6-(2,3,6-trifluorophenyl)-2,5,6,7-tetrahydro-3H-pyrrolo[1,2-c]imidazol-1-yl)propan-1-one]",90.8 % of control,55.8 % of control
"Cn1c(CCC(=O)Nc2ccccn2)c2n(c1=S)C[C@H](c1c(F)ccc(Cl)c1F)C2 [Example 268, (S)-3-(6-(3-chloro-2,6-difluorophenyl)-2-methyl-3-thioxo-2,5,6,7-tetrahydro-3H-pyrrolo[1,2-c]imidazol-1-yl)-N-(pyridin-2-yl)propanamide]",99.8 % of control,57.7 % of control
"Cn1c(CCC(=O)Nc2ccccn2)c2n(c1=S)C[C@@H](c1c(F)cccc1F)C2 [Example 269, (R)-3-(6-(2,6-difluorophenyl)-2-methyl-3-thioxo-2,5,6,7-tetrahydro-3H-pyrrolo[1,2-c]imidazol-1-yl)-N-(pyridin-2-yl)propanamide]",105.6 % of control,83.7 % of control
"Cn1c(CCC(=O)NCC#N)c2n(c1=S)C[C@@H](c1c(F)ccc(F)c1F)C2 [Example 270, (R)—N-(cyanomethyl)-3-(2-methyl-3-thioxo-6-(2,3,6-trifluorophenyl)-2,5,6,7-tetrahydro-3H-pyrrolo[1,2-c]imidazol-1-yl)propanamide]",88.1 % of control,53.8 % of control
"Cn1c(CC(=O)NC2CCCC2)c2n(c1=S)C[C@@]1(c3c(F)ccc(Cl)c3F)C[C@@H]21 [Example 271, 2-((5aS,6aR)-5a-(3-chloro-2,6-difluorophenyl)-2-methyl-3-thioxo-2,3,5,5a,6,6a-hexahydrocyclopropa[3,4]pyrrolo[1,2-c]imidazol-1-yl)-N-cyclopentylacetamide]",62.1 % of control,13.2 % of control
"Cn1c(CC(=O)NC2CCCC2)c2n(c1=S)C[C@@]1(c3cc(Br)ccc3F)C[C@@H]21 [Example 272, 2-((5aS,6aR)-5a-(5-bromo-2-fluorophenyl)-2-methyl-3-thioxo-2,3,5,5a,6,6a-hexahydrocyclopropa[3,4]pyrrolo[1,2-c]imidazol-1-yl)-N-cyclopentylacetamide]",73.5 % of control,22.7 % of control
"Cn1c(CC(=O)NC2CCCC2)c2n(c1=S)C[C@@]1(c3cc(Cl)ccc3F)C[C@@H]21 [Example 273, 2-((5aS,6aR)-5a-(5-chloro-2-fluorophenyl)-2-methyl-3-thioxo-2,3,5,5a,6,6a-hexahydrocyclopropa[3,4]pyrrolo[1,2-c]imidazol-1-yl)-N-cyclopentylacetamide]",86.6 % of control,28.9 % of control
"Cn1c(CC(=O)N[C@@H]2CCOC2)c2n(c1=S)C[C@@]1(c3c(F)ccc(Cl)c3F)C[C@@H]21 [Example 274, 2-((5aS,6aR)-5a-(3-chloro-2,6-difluorophenyl)-2-methyl-3-thioxo-2,3,5,5a,6,6a-hexahydrocyclopropa[3,4]pyrrolo[1,2-c]imidazol-1-yl)-N—((R)-tetrahydrofuran-3-yl)acetamide]",55.9 % of control,11.2 % of control
"Cn1c(CC(=O)O)c2n(c1=S)C[C@@]1(c3cc(Br)ccc3F)C[C@@H]21 [Example 275, 2-((5aS,6aR)-5a-(5-bromo-2-fluorophenyl)-2-methyl-3-thioxo-2,3,5,5a,6,6a-hexahydrocyclopropa[3,4]pyrrolo[1,2-c]imidazol-1-yl)acetic acid]",79.0 % of control,24.4 % of control
"Cn1c(CC(=O)O)c2n(c1=S)C[C@@]1(c3cc(Cl)ccc3F)C[C@@H]21 [Example 276, 2-((5aS,6aR)-5a-(5-chloro-2-fluorophenyl)-2-methyl-3-thioxo-2,3,5,5a,6,6a-hexahydrocyclopropa[3,4]pyrrolo[1,2-c]imidazol-1-yl)acetic Acid]",83.3 % of control,33.3 % of control
"Cn1c(CC(=O)N[C@@H]2CCCOC2)c2n(c1=S)C[C@@]1(c3cc(Br)ccc3F)C[C@@H]21 [Example 277, 2-((5aS,6aR)-5a-(5-bromo-2-fluorophenyl)-2-methyl-3-thioxo-2,3,5,5a,6,6a-hexahydrocyclopropa[3,4]pyrrolo[1,2-c]imidazol-1-yl)-N—((R)-tetrahydro-2H-pyran-3-yl)acetamide]",35.4 % of control,3.4 % of control
"Cn1c(CC(=O)N[C@@H]2CCCOC2)c2n(c1=S)C[C@@H](c1c(F)c(F)cc(F)c1F)C2 [Example 278, 2-((R)-2-methyl-6-(2,3,5,6-tetrafluorophenyl)-3-thioxo-2,5,6,7-tetrahydro-3H-pyrrolo[1,2-c]imidazol-1-yl)-N—((R)-tetrahydro-2H-pyran-3-yl)acetamide]",84.2 % of control,62.0 % of control
"Cn1c(CC(=O)N[C@@H]2CCOC2)c2n(c1=S)C[C@@]1(c3cc(Br)ccc3F)C[C@@H]21 [Example 279, 2-((5aS,6aR)-5a-(5-bromo-2-fluorophenyl)-2-methyl-3-thioxo-2,3,5,5a,6,6a-hexahydrocyclopropa[3,4]pyrrolo[1,2-c]imidazol-1-yl)-N—((R)-tetrahydrofuran-3-yl)acetamide]",61.7 % of control,15.7 % of control
"Cn1c(CC(N)=O)c2n(c1=S)C[C@@]1(c3cc(Br)ccc3F)C[C@@H]21 [Example 280, 2-((5aS,6aR)-5a-(5-bromo-2-fluorophenyl)-2-methyl-3-thioxo-2,3,5,5a,6,6a-hexahydrocyclopropa[3,4]pyrrolo[1,2-c]imidazol-1-yl)acetamide]",92.8 % of control,51.4 % of control
"Cn1c(CC(=O)N[C@@H]2CCOC2)c2n(c1=S)C[C@@]1(c3cc(Cl)ccc3F)C[C@@H]21 [Example 281, 2-((5aS,6aR)-5a-(5-chloro-2-fluorophenyl)-2-methyl-3-thioxo-2,3,5,5a,6,6a-hexahydrocyclopropa[3,4]pyrrolo[1,2-c]imidazol-1-yl)-N—((R)-tetrahydrofuran-3-yl)acetamide]",107.9 % of control,29.8 % of control
"Cn1c(CC(N)=O)c2n(c1=S)C[C@@]1(c3cc(Cl)ccc3F)C[C@@H]21 [Example 282, 2-((5aS,6aR)-5a-(5-chloro-2-fluorophenyl)-2-methyl-3-thioxo-2,3,5,5a,6,6a-hexahydrocyclopropa[3,4]pyrrolo[1,2-c]imidazol-1-yl)acetamide]",99.6 % of control,75.4 % of control
"COC[C@@H]1CCCN1C(=O)Cc1c2n(c(=S)n1C)C[C@@H](c1c(F)c(F)cc(F)c1F)C2 [Example 283, 1-((S)-2-(methoxymethyl)pyrrolidin-1-yl)-2-((R)-2-methyl-6-(2,3,5,6-tetrafluorophenyl)-3-thioxo-2,5,6,7-tetrahydro-3H-pyrrolo[1,2-c]imidazol-1-yl)ethan-1-one]",96.0 % of control,72.9 % of control

# From patent publication US11434242B2, “Dopamine-b-hydroxylase inhibitors” (BIAL-PORTELA & Cª, S.A., priority 2017, dated 2022)
